Assay results reported in US20250177419A1, “PHARMACEUTICAL COMPOSITION COMPRISING NICLOSAMIDE OR PHARMACEUTICALLY ACCEPTABLE SALT THEREOF AND PREPARATION METHOD THEREFOR” (WEBIOTREE CO., LTD, priority 2022, published 2025).

Columns and labels:
[1] = test system: Beta and Omicron variants of SARS-CoV-2; experiment: Antiviral efficacy test in Vero E6 cells, qRT-PCR viral genome copy; assay type: cell-based
[2] = test system: SARS-CoV-2 Omicron (B11529); experiment: Antiviral efficacy test in Vero E6 cells, qRT-PCR viral genome copy, Omicron; assay type: cell-based

## O=C(Nc1ccc([N+](=O)[O-])cc1Cl)c1cc(Cl)ccc1O [niclosamide]
[1]
  effectiveness in inhibiting viral proliferation compared to remdesivir: over 1.7 times
[2]
  antiviral efficacy against the Omicron variant compared to the Beta variant: more than four times higher antiviral efficacy
